Ki and inhibition data for 38 compounds are collected here from article PMC6272903, “Synthesis and Structure-Activity Relationship Analysis of 5-HT7 Receptor Antagonists: Piperazin-1-yl Substituted Unfused Heterobiaryls” (Molecules, 2016).

In general, Ki refers to the equilibrium dissociation constant of an inhibitor or competing ligand from its target. As usually defined, the inhibition is the relative decrease from the control value, in per cent.

For the first assay, the target named is T1, human 5-HT7b receptors (Homo sapiens, UniProt P34969).
T1 construct: expressed in transfected cells; host or cells: HEK293
T1 sequence (P34969 1-432): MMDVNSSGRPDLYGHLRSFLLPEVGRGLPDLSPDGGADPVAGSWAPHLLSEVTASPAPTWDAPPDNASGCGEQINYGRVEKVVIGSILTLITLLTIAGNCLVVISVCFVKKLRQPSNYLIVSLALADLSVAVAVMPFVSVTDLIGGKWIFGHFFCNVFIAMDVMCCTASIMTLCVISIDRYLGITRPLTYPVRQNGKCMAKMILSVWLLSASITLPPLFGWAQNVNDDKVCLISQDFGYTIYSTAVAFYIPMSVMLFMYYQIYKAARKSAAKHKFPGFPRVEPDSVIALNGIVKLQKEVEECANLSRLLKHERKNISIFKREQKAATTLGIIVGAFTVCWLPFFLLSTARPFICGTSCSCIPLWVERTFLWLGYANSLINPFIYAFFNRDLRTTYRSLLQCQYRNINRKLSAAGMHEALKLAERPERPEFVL
Description: 5-HT7 competition radioligand binding assay ([3H]5-CT). The following applies: HEK293 cells overexpressing human 5-HT7b receptors, at least two independent experiments in triplicate, read-out: Ki ± S.D. 5-HT7 binding affinity. On the procedure:
Novel scaffold endowed with 5-HT7R activity was identified by screening of the in-house compound library in a single compound concentration of 1 µM in a competition radioligand binding assay using [^3H]5-CT and HEK293 cells overexpressing the human 5-HT7b receptors.
“4-(3-Furyl)-2,4-bis(4-methylpiperazin-1-yl)pyrimidine [Compound 20]”: the Ki was greater than 10 µM.

Turning to `c1cc(-c2ccoc2)nc(N2CCNCC2)n1` [Compound 1, 4-(3-Furyl)-2-(piperazin-1-yl)pyrimidine], the Ki worked out at 0.009 ± 0.002 µM.

For `CN1CCN(c2nccc(-c3ccoc3)n2)CC1` [Compound 2, 4-(3-Furyl)-2-(4-methylpiperazin-1-yl)pyrimidine], the Ki is 0.0072 ± 0.0014 µM.

Consider `CCN1CCN(c2nccc(-c3ccoc3)n2)CC1` [Compound 3, 2-(4-Ethylpiperazin-1-yl)-4-(3-furyl)pyrimidine], for which the Ki stood at 0.01 ± 0.001 µM.

Regarding `CCCN1CCN(c2nccc(-c3ccoc3)n2)CC1` [Compound 4, 4-(3-Furyl)-2-(4-propylpiperazin-1-yl)pyrimidine], the Ki amounted to 0.0053 ± 0.0009 µM.

As for `c1ccc(CN2CCN(c3nccc(-c4ccoc4)n3)CC2)cc1` [Compound 5, 2-(4-Benzylpiperazin-1-yl)-4-(3-furyl)pyrimidine], the Ki stood at 0.025 ± 0.003 µM.

For `O=C(c1ccccc1)N1CCN(c2nccc(-c3ccoc3)n2)CC1` [Compound 6, 2-(4-Benzoylpiperazin-1-yl)-4-(3-furyl)pyrimidine], the Ki was 1.4 ± 0.173 µM.

`c1ccc(CCCN2CCN(c3nccc(-c4ccoc4)n3)CC2)cc1` [Compound 7]: the Ki is 0.0016 ± 0.0002 µM.

On to `OCCN1CCN(c2nccc(-c3ccoc3)n2)CC1` [Compound 8, 2-[4-(2-Hydroxyethyl)piperazin-1-yl]-4-(3-furyl)pyrimidine], for which the Ki is 0.0085 ± 0.0011 µM.

Take `CCOC(=O)CCN1CCN(c2nccc(-c3ccoc3)n2)CC1` [Compound 9, Ethyl 3-{4-{[4-(3-furyl)pyrimidin-2-yl]piperazin-1-yl}}propanoate]: the Ki worked out at 0.0089 ± 0.0021 µM.

Take `CCOC(=O)CCCCCN1CCN(c2nccc(-c3ccoc3)n2)CC1` [Compound 10]: the Ki was 0.0014 ± 0.0003 µM.

As for `Cc1cc(-c2ccoc2)nc(N2CCN(C)CC2)n1` [Compound 11, 4-(3-Furyl)-6-methyl-2-(4-methylpiperazin-1-yl)pyrimidine], the Ki worked out at 0.0039 ± 0.0007 µM.

With `CCCCCCc1cc(-c2ccoc2)nc(N2CCN(C)CC2)n1` [Compound 14, 4-(3-Furyl)-6-n-hexyl-2-(4-methylpiperazin-1-yl)pyrimidine], the inhibitory constant (Ki) was 0.0033 ± 0.0005 µM.

As for `CCC(C)c1cc(-c2ccoc2)nc(N2CCN(C)CC2)n1` (centres unmarked) [Compound 15, 4-sec-Butyl-6-(3-furyl)-2-(4-methylpiperazin-1-yl)pyrimidine], the inhibition constant Ki amounted to 0.0027 ± 0.0005 µM.

In the case of `CN1CCN(c2nc(-c3ccoc3)cc(C(F)(F)F)n2)CC1` [Compound 16, 4-(3-Furyl)-2-(4-methylpiperazin-1-yl)-6-(trifluoromethyl)pyrimidine], the Ki came to 0.0083 ± 0.0017 µM.

Consider `CN1CCN(c2nc(C#CC3=CCCCC3)cc(-c3ccoc3)n2)CC1` [Compound 17, 4-(Cyclohexenylethynyl)-6-(3-furyl)-2-(4-methylpiperazin-1-yl)pyrimidine], for which the Ki was determined as 0.018 ± 0.003 µM.

As for `CN1CCN(c2nc(-c3ccoc3)cc(-c3ccoc3)n2)CC1` [Compound 18, 4,6-Bis(3-furyl)-2-(4-methylpiperazin-1-yl)pyrimidine], the Ki worked out at 0.022 ± 0.002 µM.

With `CN1CCN(c2nc(-c3ccoc3)cc(N(C)C)n2)CC1` [Compound 19, 4-Dimethylamino-6-(3-furyl)-2-(4-methylpiperazin-1-yl)pyrimidine], the Ki was greater than 10 µM.

`CCCc1cnc(N2CCN(C)CC2)nc1-c1ccoc1` [Compound 21, 4-(3-Furyl)-2-(4-methylpiperazino)-5-propylpyrimidine]: the inhibition constant Ki was 1.33 ± 0.232 µM.

Regarding `CCCCc1nc(N2CCN(C)CC2)nc(-c2ccoc2)c1CCC` [Compound 22, 4-n-Butyl-6-(3-furyl)-2-(4-methylpiperazino)-5-propylpyrimidine], the Ki stood at 1.25 ± 0.116 µM.

Regarding `Cc1occc1-c1ccnc(N2CCN(C)CC2)n1` [Compound 23, 4-(2-Methyl-3-furyl)-2-(4-methylpiperazin-1-yl)pyrimidine], the Ki turned out to be 1.92 ± 0.373 µM.

`Cc1cc(-c2ccnc(N3CCN(C)CC3)n2)co1` [Compound 24, 4-(5-Methyl-3-furyl)-2-(4-methylpiperazin-1-yl)pyrimidine]: the Ki was found to be 0.462 ± 0.054 µM.

As to `CCCCCCc1cc(-c2coc(C)c2)nc(N2CCN(C)CC2)n1` [Compound 25, 4-n-Hexyl-6-(5-methyl-3-furyl)-2-(4-methylpiperazin-1-yl)pyrimidine], the Ki was 0.012 ± 0.002 µM.

On to `CN1CCN(c2nccc(-c3ccco3)n2)CC1` [Compound 26, 4-(2-Furyl)-2-(4-methylpiperazin-1-yl)pyrimidine], for which the Ki is 1.02 ± 0.096 µM.

Turning to `CCc1cc(-c2ccco2)nc(N2CCN(C)CC2)n1` [Compound 27, 4-Ethyl-6-(2-furyl)-2-(4-methylpiperazin-1-yl)pyrimidine], the Ki came out at 0.38 ± 0.044 µM.

With `CCCCc1cc(-c2ccco2)nc(N2CCN(C)CC2)n1` [Compound 28, 4-n-Butyl-6-(2-furyl)-2-(4-methylpiperazin-1-yl)pyrimidine], the Ki is 0.45 ± 0.063 µM.

As for `Cc1ccc(-c2ccnc(N3CCN(C)CC3)n2)o1` [Compound 29, 4-(5-Methyl-2-furyl)-2-(4-methylpiperazin-1-yl)pyrimidine], the Ki was found to be 4.23 ± 0.68 µM.

Consider `CN1CCN(c2nccc(-c3ccsc3)n2)CC1` [Compound 30, 2-(Methylpiperazin-1-yl)-4-(3-thienyl)pyrimidine], for which the Ki stood at 0.083 ± 0.009 µM.

With `CCCCc1cc(-c2ccsc2)nc(N2CCN(C)CC2)n1` [Compound 31, 4-n-Butyl-2-(methylpiperazin-1-yl)-6-(3-thienyl)pyrimidine], the Ki came to 0.015 ± 0.003 µM.

As to `CN1CCN(c2nccc(-c3cccs3)n2)CC1` [Compound 32, 2-(Methylpiperazin-1-yl)-4-(2-thienyl)pyrimidine], the Ki worked out at 0.48 ± 0.065 µM.

For `CN1CCN(c2nccc(-c3ccccc3O)n2)CC1` [Compound 33, 4-(2-Hydroxyphenyl)-2-(4-methylpiperazin-1-yl)pyrimidine], the Ki was greater than 10 µM.

As to `CN1CCN(c2nccc(-c3cccc(O)c3)n2)CC1` [Compound 34, 4-(3-Hydroxyphenyl)-2-(4-methylpiperazin-1-yl)pyrimidine], the Ki is greater than 10 µM.

Regarding `CN1CCN(c2nccc(-c3ccc(O)cc3)n2)CC1` [Compound 35, 4-(4-Hydroxyphenyl)-2-(4-methylpiperazin-1-yl)pyrimidine], the Ki was greater than 10 µM.

As to `CN1CCN(c2nccc(-c3cc4ccccc4o3)n2)CC1` [Compound 36, 4-(Benzofuran-2-yl)-2-(4-methylpiperazin-1-yl)pyrimidine], the Ki came to 7.46 ± 1.23 µM.

Regarding `CN1CCN(c2nccc(-c3cc4ccccc4s3)n2)CC1` [Compound 37, 4-(Benzothiophen-2-yl)-2-(4-methylpiperazin-1-yl)pyrimidine], the Ki is 5.28 ± 0.82 µM.

In the case of `CN1CCN(c2nccc(-c3cc4ccccc4n3C)n2)CC1` [Compound 38, 4-(1-Methylindol-2-yl)-2-(4-methylpiperazin-1-yl)pyrimidine], the Ki worked out at 1.53 ± 0.125 µM.

Regarding `CN1CCN(c2nccc(-c3cccnc3)n2)CC1` [Compound 39, 2-(4-Methylpiperazin-1-yl)-4-(pyridin-3-yl)pyrimidine], the Ki was 0.78 ± 0.094 µM.

With `CN1CCN(c2nccc(-c3nccs3)n2)CC1` [Compound 40, 2-(4-Methylpiperazin-1-yl)-4-(thiazol-2-yl)pyrimidine], the inhibitory constant (Ki) is greater than 10 µM.

The same assay, now with this note: single compound concentration of 1 µM, HEK293 cells, read-out: inhibition in library screening.
For `CN1CCN(c2nccc(-c3ccoc3)n2)CC1` [Compound 2, 4-(3-Furyl)-2-(4-methylpiperazin-1-yl)pyrimidine], the inhibition at 1 µM was greater than 60%.

Take `Cc1cc(-c2ccoc2)nc(N2CCN(C)CC2)n1` [Compound 11, 4-(3-Furyl)-6-methyl-2-(4-methylpiperazin-1-yl)pyrimidine]: the inhibition at 1 µM is greater than 60%.

Regarding `CN1CCN(c2nc(-c3ccoc3)cc(-c3ccoc3)n2)CC1` [Compound 18, 4,6-Bis(3-furyl)-2-(4-methylpiperazin-1-yl)pyrimidine], the inhibition at 1 µM is greater than 60%.
